Measured values from patent publication US20260232812A1, “BIFUNCTIONAL MOLECULES FOR TARGETED PROTEIN DEGRADATION” (Amphista Therapeutics Limited, priority 2022, published 2026).

Molecular target: T1, BRD4 (Homo sapiens, UniProt O60885)
T1 construct: HEK293 containing a HiBit insertion for BRD4; endogenous in cells; host or cells: HEK293 with a HiBiT insertion for BRD4
Assay: Assay 1 - Degradation of HiBit-BRD4 in HEK293
Type: cell-based
Settings: HiBit-BRD4 in HEK293, 6 h treatment
Experimental: 1.1 Assay 1-Degradation of HiBit-BRD4 in HEK293
HEK293 containing a HiBit insertion for BRD4 were plated in 384-well tissue culture plates at a density of 8×10^4 per well in a volume of 36 μL and incubated overnight at 37° C. and 5% CO2. Wells were treated with test compounds for 6 h prior to addition of the NanoLuc substrate and reading on a […]. Degradation data was plotted and analysed using […] (Graphpad).

DC50 [nM]	Dmax [%]	Structure (SMILES)
25 to 200	30 to 50	CC(=O)N1c2ccc(-c3ccc(C(=O)NCCOCCOCCOCCOCCOCCNC(=O)[C@@H]4CN(C(=O)/C(C#N)=C/c5ccn(C)n5)C[C@H]4c4ccc(F)cc4)cc3)cc2[C@H](Nc2ccc(Cl)cc2)C[C@@H]1C [Example 15ag]
25 to 200	50 to 70	CC(=O)N1c2ccc(-c3ccc(C(=O)NCCOCCOCCOCCOCCOCCNC(=O)[C@@H]4CN(C(=O)/C(C#N)=C/C(C)(C)CN5CCOCC5)C[C@H]4CC(C)C)cc3)cc2[C@H](Nc2ccc(Cl)cc2)C[C@@H]1C [Example 15o]
> 200	50 to 70	CC(=O)N1c2ccc(-c3ccc(C(=O)NCCOCCOCCOCCOCCOCCNC(=O)C4CC(C(C)C)CN(C(=O)/C(C#N)=C/c5ccc(F)cc5)C4)cc3)cc2[C@H](Nc2ccc(Cl)cc2)C[C@@H]1C (some centres unmarked) [Example 13n]
25 to 200	30 to 50	CC(=O)N1c2ccc(-c3ccc(C(=O)NCCOCCOCCOCCOCCOCCNC(=O)C4CC(c5ccc(C(F)(F)F)cc5)CN(C(=O)/C(C#N)=C/C(C)(C)CN5CCOCC5)C4)cc3)cc2[C@H](Nc2ccc(Cl)cc2)C[C@@H]1C (some centres unmarked) [Example 13an]
> 200	30 to 50	CC(=O)N1c2ccc(-c3ccc(C(=O)NCCOCCOCCOCCOCCOCCNC(=O)C4CCCN(C(=O)/C(C#N)=C/C(C)(C)CN5CCOCC5)C4)cc3)cc2[C@H](Nc2ccc(Cl)cc2)C[C@@H]1C (some centres unmarked) [Example 13e]
> 200	< 50	CC(=O)N1c2ccc(-c3ccc(C(=O)NCCOCCOCCOCCOCCOCCNC(=O)C4CC(c5cccc(C)c5)CN(C(=O)/C(C#N)=C/c5ccc(F)cc5)C4)cc3)cc2[C@H](Nc2ccc(Cl)cc2)C[C@@H]1C (some centres unmarked) [Example 13aw]
25 to 200	≥ 70	CC(=O)N1c2ccc(-c3ccc(C(=O)NCCOCCOCCOCCOCCOCCNC(=O)[C@@H]4CN(C(=O)/C(C#N)=C/C(C)(C)C)C[C@H]4C4CCCCC4)cc3)cc2[C@H](Nc2ccc(Cl)cc2)C[C@@H]1C [Example 15q]
> 200	30 to 50	CC(=O)N1c2ccc(-c3ccc(C(=O)NCCOCCOCCOCCOCCOCCNC(=O)C4CC(C(C)C)CN(C(=O)/C(C#N)=C/C(C)(C)C)C4)cc3)cc2[C@H](Nc2ccc(Cl)cc2)C[C@@H]1C (some centres unmarked) [Example 13l]
25 to 200	50 to 70	CC(=O)N1c2ccc(-c3ccc(C(=O)NCCOCCOCCOCCOCCOCCNC(=O)[C@@H]4CN(C(=O)/C(C#N)=C/c5ccn(C)n5)C[C@H]4CC(C)C)cc3)cc2[C@H](Nc2ccc(Cl)cc2)C[C@@H]1C [Example 15m]
< 25	≥ 70	CC(=O)N1c2ccc(-c3ccc(C(=O)NCCOCCOCCOCCOCCOCCNC(=O)C4CC(C5CCCCC5)CN(C(=O)/C(C#N)=C/c5nccs5)C4)cc3)cc2[C@H](Nc2ccc(Cl)cc2)C[C@@H]1C (some centres unmarked) [Example 13p]
25 to 200	30 to 50	CC(=O)N1c2ccc(-c3ccc(C(=O)NCCOCCOCCOCCOCCOCCNC(=O)[C@@H]4CN(C(=O)/C(C#N)=C/c5ccn(C)n5)C[C@H]4c4ccccc4)cc3)cc2[C@H](Nc2ccc(Cl)cc2)C[C@@H]1C [Example 15w]
25 to 200	50 to 70	COc1ccc(C2CC(C(=O)NCCOCCOCCOCCOCCOCCNC(=O)c3ccc(-c4ccc5c(c4)[C@H](Nc4ccc(Cl)cc4)C[C@H](C)N5C(C)=O)cc3)CN(C(=O)/C(C#N)=C/c3ccn(C)n3)C2)cc1 (some centres unmarked) [Example 13ag]
> 200	≥ 70	CC(=O)N1c2ccc(-c3ccc(C(=O)NCCOCCOCCOCCOCCOCCNC(=O)[C@@H]4CN(C(=O)/C(C#N)=C/c5ccn(C)n5)C[C@H]4c4cccc(C)c4)cc3)cc2[C@H](Nc2ccc(Cl)cc2)C[C@@H]1C [Example 15al]
